# What was measured:
# CDK2/CycE = biological target: T1, CDK2/CycE (Homo sapiens, UniProt P24941); assay: CDK2/CycE kinase assay (TR-FRET, 2 mM ATP); format: biochemical; conditions: 2 mM ATP (high ATP); median; read-out: CDK2/CyclinE, 2 mM ATP (high ATP), IC50 (median)
# T1 construct: purchased ProQinase GmbH (Freiburg, Germany); host or cells: insect cells (Sf9)
# Source text: CDK2/CycE-inhibitory activity of compounds of the present invention was quantified employing the CDK2/CycE TR-FRET assay as described in the following paragraphs.
# Recombinant fusion proteins of GST and human CDK2 and of GST and human CycE, expressed in insect cells (Sf9) and purified by Glutathion-Sepharose affinity chromatography, were purchase from ProQinase GmbH (Freiburg, Germany). As substrate for the kinase reaction biotinylated peptide biotin-Ttds-YISPLKSPYKISEG (C-terminus in amid form) was used which can be purchased e.g. form the company JERINI peptide technologies (Berlin, Germany).
# For the assay 50 nanoL of a 100 fold concentrated solution of the test compound in DMSO was pipetted into a black low volume 384 well microtiter plate or a black 1536 well microtiter plate (both Greiner Bio-One, Frickenhausen, Germany), 2 microL of a solution of CDK2/CycE in aqueous assay buffer [50 millimol/L Tris/HCl pH 8.0, 10 millimol/L MgCl2, 1.0 millimol/L dithiothreitol, 0.1 millimol/L sodium ortho-vanadate, 0.01% (v/v) Nonidet-P40 (Sigma)] were added and the mixture was incubated for 15 min at 22° C. to allow pre-binding of the test compounds to the enzyme before the start of the kinase reaction. Then the kinase reaction was started by the addition of 3 microL of a solution of adenosine-tri-phosphate (ATP, 3.33 millimol/L=>final conc. in the 5 microL assay volume is 2 millimol/L) and substrate (1.25 micromol/L=>final conc. in the 5 microL assay volume is 0.75 micromol/L) in assay buffer and the resulting mixture was incubated for a reaction time of 25 min at 22° C. The concentration of CDK2/CycE was adjusted depending of the activity of the enzyme lot and was chosen appropriate to have the assay in the linear range, typical concentrations were in the range of 10 ng/ml. The reaction was stopped by the addition of 3 microL of a solution of TR-FRET detection reagents (0.333 micromol/L streptavidine-XL665 [Cisbio Bioassays, Codolet, France] and 1.67 nanomol/L anti-RB(pSer807/pSer8l 1)-antibody from BD Pharmingen [#558389] and 2 nanomol/L LANCE EU-W1024 labeled anti-mouse IgG antibody [Perkin-Elmer, product no. AD0077, as an alternative a Terbium-cryptate-labeled anti-mouse IgG antibody from Cisbio Bioassays can be used]) in an aqueous EDTA-solution (167 millimol/L EDTA, 0.2% (w/v) bovine serum albumin in 100 millimol/L HEPES pH 7.5).
# The resulting mixture was incubated 1 h at 22° C. to allow the formation of complex between the phosphorylated biotinylated peptide and the detection reagents. Subsequently the amount of phosphorylated substrate was evaluated by measurement of the resonance energy transfer from the Eu-chelate to the streptavidine-XL. Therefore, the fluorescence emissions at 620 nm and 665 nm after excitation at 350 nm was measured in a TR-FRET reader, e.g. a Pherastar (BMG Labtechnologies, Offenburg, Germany) or a Viewlux (Perkin-Elmer). The ratio of the emissions at 665 nm and at […] was taken as the measure for the amount of phosphorylated substrate. The data were normalised (enzyme reaction without inhibitor=0% inhibition, all other assay components but no enzyme=100% inhibition).
# [1] = biological target: T2, CYCLIN K (nuclear staining in CAL-120 cells) (Homo sapiens, UniProt O75909); assay: CYCLIN K nuclear protein level: immunofluorescence high content analysis (CAL-120); format: cell-based; conditions: 24 h, 50% reduction of nuclear CCNK staining intensity, median, read-out: CYCLIN K degradation IF, DC50-[mol/l] (median)
# T2 construct: endogenous in cells; host or cells: CAL-120 human breast cancer cells (DSMZ ACC 459)
# Experimental: 8. CYCLIN K nuclear protein level: immunofluorescence High Content Analysis
# CAL-120 human breast cancer cells (DSMZ ACC 459) are seeded in 1536-well microtiter plates (800 cells per well) containing 50 nanoL of compounds in Dose-Response. Control wells received DMSO or Example 4. Plates are then incubated for 24 h at 37° C. in an humidified incubator and fixed with 4% PFA for 10 min. Then immunofluorescence (IF) against CYCLIN K (ThermoFisher Scientific CONK Antibody #PA5-85020, rabbit, 1:200 dilution) is performed using standard IF protocols. Cells are then stained with Hoechst 33342 (Life Technologies, H-1399, 0.1 microg/ml) and imaged on an automated confocal microscopy system (e.g. Perkin Elmer Opera Phenix). Nuclear and cytoplasmic intensity as well as the nuclear/cytoplasmic intensity ratio is determined by automated image analysis using custom generated scripts (MetaXpress). Data is then transferred to Genedata Screener software, normalized to DMSO and control and DC50 values (degrading concentration to achieve 50% reduction of nuclear CCNK staining intensity relative to controls) are reported.
# [2] = system: CAL-120, human breast adenocarcinoma cells; assay: Proliferation assay CAL-120 (crystal violet, 4 days); format: cell-based; conditions: Homo sapiens, CAL-120, 96 h, CAL-120 cells, median, read-out: Prolif-CAL-120, IC50-[mol/l] (median)
# Experimental: Human tumour cells were originally obtained from the American Type Culture Collection (ATCC), or from the Deutsche Sammlung von Mikroorganismen und Zellkulturen (DSMZ, German Collection of Microorganisms and Cell Cultures). Cultivated tumour cells (CAL-120, human breast adenocarcinoma cells, DSMZ ACC-459; MDA-MB-231, human breast cancer cells, ATCC HTB-26) were plated at a density of 4,000 cells/well in a 96-well multititer plate in 200 microL of their respective growth medium supplemented 10% fetal calf serum. After 24 hours, the cells of one plate (zero-point plate) were stained with crystal violet (see below), while the medium of the other plates was supplemented with the test substances in various concentrations (0 micromol/L, as well as in the range of 0.01-10 micromol/L; the final concentration of the solvent dimethyl sulfoxide was adjusted to 0.1%) using a Tecan HP D300 Digital Dispenser. The cells were incubated for 4 days in the presence of test substances. Cell proliferation was determined by staining the cells with crystal violet: the cells were fixed by adding 20 microL/measuring point of an 11% glutaric aldehyde solution for 15 minutes at room temperature. After three washing cycles of the fixed cells with water, the plates were dried at room temperature. The cells were stained by adding 100 microL/measuring point of a 0.1% crystal violet solution (pH 3.0). After three washing cycles of the stained cells with water, the plates were dried at room temperature. The dye was dissolved by adding 100 microL/measuring point of a 10% acetic acid solution. The extinction was determined by photometry at a wavelength of 595 nm. The change of cell number, in percent, was calculated by normalization of the measured values to the extinction values of the zero-point plate (=0%) and the extinction of the untreated (0 μM) cells (=100%). The IC50 values (inhibitory concentration at 50% of maximal effect) were determined by means of a 4 parameter fit.
# T2 sequence (O75909 whole entry): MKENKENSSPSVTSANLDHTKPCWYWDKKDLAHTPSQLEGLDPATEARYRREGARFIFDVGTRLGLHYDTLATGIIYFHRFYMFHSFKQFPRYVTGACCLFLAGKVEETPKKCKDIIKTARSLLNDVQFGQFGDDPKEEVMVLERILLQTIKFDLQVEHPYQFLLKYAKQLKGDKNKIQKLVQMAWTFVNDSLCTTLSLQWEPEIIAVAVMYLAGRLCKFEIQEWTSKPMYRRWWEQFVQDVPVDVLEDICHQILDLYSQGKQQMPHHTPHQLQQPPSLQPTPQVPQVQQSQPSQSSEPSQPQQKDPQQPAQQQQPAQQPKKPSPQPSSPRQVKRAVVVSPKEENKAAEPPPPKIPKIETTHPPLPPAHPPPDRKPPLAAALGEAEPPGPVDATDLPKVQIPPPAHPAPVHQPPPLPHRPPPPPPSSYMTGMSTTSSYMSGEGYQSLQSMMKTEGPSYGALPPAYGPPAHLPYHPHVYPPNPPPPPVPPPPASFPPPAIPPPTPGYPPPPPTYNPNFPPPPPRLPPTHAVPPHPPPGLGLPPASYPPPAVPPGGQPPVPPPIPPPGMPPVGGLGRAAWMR
# T2 sequence (Q9NYV4 whole entry partner): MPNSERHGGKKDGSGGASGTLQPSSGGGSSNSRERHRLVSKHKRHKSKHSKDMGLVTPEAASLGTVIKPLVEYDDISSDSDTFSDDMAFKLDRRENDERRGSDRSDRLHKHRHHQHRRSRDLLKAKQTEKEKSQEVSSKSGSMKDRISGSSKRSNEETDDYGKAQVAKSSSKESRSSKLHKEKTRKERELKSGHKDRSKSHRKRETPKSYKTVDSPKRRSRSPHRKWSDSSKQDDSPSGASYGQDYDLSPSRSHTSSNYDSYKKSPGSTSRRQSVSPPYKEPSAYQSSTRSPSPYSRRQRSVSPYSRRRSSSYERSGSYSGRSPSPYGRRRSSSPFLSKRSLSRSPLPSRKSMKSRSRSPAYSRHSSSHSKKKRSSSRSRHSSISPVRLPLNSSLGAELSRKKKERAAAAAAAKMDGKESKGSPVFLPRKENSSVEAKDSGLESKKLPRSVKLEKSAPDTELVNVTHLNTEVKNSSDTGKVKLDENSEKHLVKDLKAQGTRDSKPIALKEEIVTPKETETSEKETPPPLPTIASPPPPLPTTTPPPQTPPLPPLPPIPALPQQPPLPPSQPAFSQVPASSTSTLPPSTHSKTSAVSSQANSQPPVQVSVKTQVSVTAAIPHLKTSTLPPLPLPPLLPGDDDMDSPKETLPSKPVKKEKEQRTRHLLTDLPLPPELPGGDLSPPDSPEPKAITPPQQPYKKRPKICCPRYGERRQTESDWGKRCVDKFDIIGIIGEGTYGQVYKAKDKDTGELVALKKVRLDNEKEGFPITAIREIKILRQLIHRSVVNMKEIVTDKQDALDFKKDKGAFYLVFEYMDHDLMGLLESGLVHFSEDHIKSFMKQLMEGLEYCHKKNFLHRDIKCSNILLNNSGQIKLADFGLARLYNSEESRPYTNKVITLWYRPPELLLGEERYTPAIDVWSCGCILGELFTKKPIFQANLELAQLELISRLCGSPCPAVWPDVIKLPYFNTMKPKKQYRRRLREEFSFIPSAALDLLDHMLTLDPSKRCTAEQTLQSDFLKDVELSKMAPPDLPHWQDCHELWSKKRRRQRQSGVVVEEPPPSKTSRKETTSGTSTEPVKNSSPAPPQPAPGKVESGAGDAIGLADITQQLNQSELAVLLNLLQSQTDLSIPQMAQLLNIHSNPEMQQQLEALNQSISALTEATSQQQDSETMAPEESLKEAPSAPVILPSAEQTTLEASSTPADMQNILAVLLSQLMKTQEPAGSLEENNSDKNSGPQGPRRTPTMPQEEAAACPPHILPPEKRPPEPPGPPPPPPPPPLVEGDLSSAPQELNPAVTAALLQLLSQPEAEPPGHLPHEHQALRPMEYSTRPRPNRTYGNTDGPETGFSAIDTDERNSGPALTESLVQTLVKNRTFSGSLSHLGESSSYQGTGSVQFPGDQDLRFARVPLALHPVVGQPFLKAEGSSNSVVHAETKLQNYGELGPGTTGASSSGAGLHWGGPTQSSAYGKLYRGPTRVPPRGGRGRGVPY
SMILES,IC50 (CDK2/CycE) [nM],DC50 [1] [nM],IC50 [2] [nM]
"Brc1cnn2c(NCc3nc4ccccc4[nH]3)nc(N3C[C@@H]4C[C@H]3CO4)nc12 [Example 103, N-[(1H-benzimidazol-2-yl)methyl]-8-bromo-2-[(1S,4S)-2-oxa-5-azabicyclo[2.2.1]heptan-5-yl]pyrazolo[1,5-a][1,3,5]triazin-4-amine]",9050,0.765,46.5
"Fc1cc(F)cc(-c2nnc(CNc3nc(N4CCOCC4)nc4c(Br)cnn34)[nH]2)c1 [Example 105, 8-bromo-N-{[5-(3,5-difluorophenyl)-4H-1,2,4-triazol-3-yl]methyl}-2-(morpholin-4-yl)pyrazolo[1,5-a][1,3,5]triazin-4-amine]",826,0.676,7.36
"Brc1cnn2c(NCc3nc4ccccc4[nH]3)nc(N3CCOCC3C3CC3)nc12 (stereo not drawn) [Example 117, N-(1H-benzimidazol-2-ylmethyl)-8-bromo-2-(3-cyclopropylmorpholin-4-yl)pyrazolo[1,5-a][1,3,5]triazin-4-amine]",4660,2.62,23.1
"Brc1cnn2c(NCc3nnc(-c4ccccc4)[nH]3)nc(N3C[C@H]4C[C@@H]3CO4)nc12 [Example 118, 8-bromo-2-[(1R,4R)-2-oxa-5-azabicyclo[2.2.1]heptan-5-yl]-N-[(5-phenyl-4H-1,2,4-triazol-3-yl)methyl]pyrazolo[1,5-a][1,3,5]triazin-4-amine]",3390,2.98,29.7
"Brc1cnn2c(NCc3nnc(-c4ccccc4)[nH]3)nc(N3CCNCC3)nc12.O=CO [Example 119, 8-bromo-N-[(5-phenyl-4H-1,2,4-triazol-3-yl)methyl]-2-piperazin-1-yl-pyrazolo[1,5-a][1,3,5]triazin-4-amine formate]",7770,3,7.75
"Brc1cnn2c(NCc3nnc(-c4ccccc4)[nH]3)nc(N3C[C@@H]4C[C@H]3CO4)nc12 [Example 120, 8-bromo-2-[(1S,4S)-2-oxa-5-azabicyclo[2.2.1]heptan-5-yl]-N-[(5-phenyl-4H-1,2,4-triazol-3-yl)methyl]pyrazolo[1,5-a][1,3,5]triazin-4-amine]",15400,2.19,25.4
"C[C@H]1CN(c2nc(NCc3nnc(-c4ccccc4)[nH]3)n3ncc(Br)c3n2)CCN1C.O=CO [Example 122, 8-bromo-2-[(3S)-3,4-dimethylpiperazin-1-yl]-N-[(5-phenyl-4H-1,2,4-triazol-3-yl)methyl]pyrazolo[1,5-a][1,3,5]triazin-4-amine formate]",6720,0.735,18.5
"CC1(C)CN(c2nc(NCc3nc4ccccc4[nH]3)n3ncc(C4CC4)c3n2)CCO1 [Example 123, N-[(1H-benzimidazol-2-yl)methyl]-8-cyclopropyl-2-(2,2-dimethylmorpholin-4-yl)pyrazolo[1,5-a][1,3,5]triazin-4-amine]",> 20000,5.03,83.2

# Now from value to compound:
IC50 (CDK2/CycE) [nM],DC50 [1] [nM],IC50 [2] [nM],SMILES
> 20000,2.45,47,"Fc1ccc(-c2cnn3c(NCc4nc5ccccc5[nH]4)nc(N4CCOCC4)nc23)cc1 [Example 106, N-[(1H-benzimidazol-2-yl)methyl]-8-(4-fluorophenyl)-2-(morpholin-4-yl)pyrazolo[1,5-a][1,3,5]triazin-4-amine]"
> 20000,2.91,89.6,"c1cncc(-c2cnn3c(NCc4nc5ccccc5[nH]4)nc(N4CCOCC4)nc23)c1 [Example 108, N-[(1H-benzimidazol-2-yl)methyl]-2-(morpholin-4-yl)-8-(pyridin-3-yl)pyrazolo[1,5-a][1,3,5]triazin-4-amine]"
4010,0.115,4.9,"C[C@@H]1CN(c2nc(NCc3nc4c(F)cccc4[nH]3)n3ncc(Br)c3n2)C[C@H](C)O1 [Example 109, 8-bromo-2-[(2R,6S)-2,6-dimethylmorpholin-4-yl]-N-[(4-fluoro-1H-benzimidazol-2-yl)methyl]pyrazolo[1,5-a][1,3,5]triazin-4-amine]"
8210,0.354,5.03,"C[C@@H]1CN(c2nc(NCc3nc4cc(F)ccc4[nH]3)n3ncc(Br)c3n2)C[C@H](C)O1 [Example 110, 8-bromo-2-[(2R,6S)-2,6-dimethylmorpholin-4-yl]-N-[(5-fluoro-1H-benzimidazol-2-yl)methyl]pyrazolo[1,5-a][1,3,5]triazin-4-amine]"
> 20000,1,8.96,"c1ccc2[nH]c(CNc3nc(N4CCOCC4)nc4c(-c5ccncc5)cnn34)nc2c1 [Example 111, N-[(1H-benzimidazol-2-yl)methyl]-2-(morpholin-4-yl)-8-(pyridin-4-yl)pyrazolo[1,5-a][1,3,5]triazin-4-amine hydrogen chloride (1/1)]"
3010,4.92,47,"CCC1COCCN1c1nc(NCc2nc3ccccc3[nH]2)n2ncc(Br)c2n1 (stereo not drawn) [Example 116, N-(1H-benzimidazol-2-ylmethyl)-8-bromo-2-(3-ethylmorpholin-4-yl)pyrazolo[1,5-a][1,3,5]triazin-4-amine]"
8970,0.142,6.43,"COc1ccc2[nH]c(CNc3nc(N4C[C@@H](C)O[C@@H](C)C4)nc4c(Br)cnn34)nc2c1 [Example 124, 8-bromo-2-[(2R, 6S)-2,6-dimethylmorpholin-4-yl]-N-[(5-methoxy-1H-benzimidazol-2-yl)methyl]pyrazolo[1,5-a][1,3,5]triazin-4-amine]"

# — patent US20230117034A1, “PYRAZOLOTRIAZINES” (Bayer Aktiengesellschaft, priority 2019, published 2023)
